Biological target: T1, HCV polymerase (Hepatitis C virus genotype 1b, UniProt P26663)
T1 construct: 2.5 pmoles (0.15 μg) HCV polymerase protein in a final volume of 75 μL
Assay: HCV polymerase primer/template-directed transcription assay (32P-GTP incorporation, filter binding)
Assay type: biochemical
Conditions: recombinant HCV polymerase; 30 minutes at 30° C.; concentration giving 50% inhibition of polymerase-directed transcription; read-out: IC50
In short: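 Recombinant genotype 1b polymerase (30 nM) extended biotin-dG12 primer on poly(rC)300 template with 1 μM GTP plus α-32P-GTP, pH 7.2, 10 mM MgCl2, 30 min at 30° C, 1% DMSO final. Products captured on DE filters and counted. IC50 fitted from triplicate cpm, with a tight-binding correction applied below 200 nM.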

T1 sequence (P26663 2420-3010): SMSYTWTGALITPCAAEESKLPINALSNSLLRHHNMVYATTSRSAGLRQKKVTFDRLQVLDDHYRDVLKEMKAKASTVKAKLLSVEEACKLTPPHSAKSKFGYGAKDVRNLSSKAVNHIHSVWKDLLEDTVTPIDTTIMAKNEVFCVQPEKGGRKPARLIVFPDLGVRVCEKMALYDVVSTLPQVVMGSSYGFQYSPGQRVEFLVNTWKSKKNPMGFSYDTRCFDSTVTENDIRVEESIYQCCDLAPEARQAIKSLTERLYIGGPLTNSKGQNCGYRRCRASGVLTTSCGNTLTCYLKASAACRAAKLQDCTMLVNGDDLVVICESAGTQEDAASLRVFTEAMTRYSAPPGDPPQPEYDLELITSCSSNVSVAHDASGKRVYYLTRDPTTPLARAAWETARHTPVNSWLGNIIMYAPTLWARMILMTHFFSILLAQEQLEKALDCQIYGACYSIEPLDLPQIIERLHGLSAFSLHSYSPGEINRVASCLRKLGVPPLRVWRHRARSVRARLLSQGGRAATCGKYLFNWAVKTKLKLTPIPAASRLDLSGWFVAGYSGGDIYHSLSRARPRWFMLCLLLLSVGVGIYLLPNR

Cn1c(CC2=C(O)CC(CCc3ccc(C(C)(C)C#N)c(F)c3)(C3CCCC3)OC2=O)nc2cc(Cl)ccc21 (stereo not shown) [A(98), 2-[4-(2-{5-[(5-chloro-1-methyl-1H-benzimidazol-2-yl)methyl]-2-cyclopentyl-4-hydroxy-6-oxo-3,6-dihydro-2H-pyran-2-yl}ethyl)-2-fluorophenyl]-2-methylpropanenitrile]
IC50: 10 nM

CC(C)(C#N)c1ccc(CCC2(C3CCCC3)CC(O)=C(Cc3cc[nH]c(=O)c3)C(=O)O2)cc1F (stereo not shown) [A(99), 2-[4-(2-{2-cyclopentyl-4-hydroxy-6-oxo-5-[(2-oxo-1,2-dihydropyridin-4-yl)methyl]-3,6-dihydro-2H-pyran-2-yl}ethyl)-2-fluorophenyl]-2-methylpropanenitrile]
IC50: 17 nM

COc1cccc(CC2=C(O)CC(CCc3ccc(C(C)(C)C#N)c(F)c3)(C3CCCC3)OC2=O)c1 (stereo not shown) [A(100), 2-(4-{2-[2-cyclopentyl-4-hydroxy-5-(3-methoxybenzyl)-6-oxo-3,6-dihydro-2H-pyran-2-yl]ethyl}-2-fluorophenyl)-2-methylpropanenitrile]
IC50: 88 nM

CC(C)(C#N)c1ccc(CCC2(C3CCCC3)CC(O)=C(Cc3cccc(S(C)(=O)=O)c3)C(=O)O2)cc1F (stereo not shown) [A(101), 2-[4-(2-{2-cyclopentyl-4-hydroxy-5-[3-(methylsulfonyl)benzyl]-6-oxo-3,6-dihydro-2H-pyran-2-yl}ethyl)-2-fluorophenyl]-2-methylpropanenitrile]
IC50: 66 nM

Cn1cc(Cl)c(CC2=C(O)CC(CCc3ccc(C(C)(C)C#N)c(F)c3)(C3CCCC3)OC2=O)n1 (stereo not shown) [A(102), 2-[4-(2-{5-[(4-chloro-1-methyl-1H-pyrazol-3-yl)methyl]-2-cyclopentyl-4-hydroxy-6-oxo-3,6-dihydro-2H-pyran-2-yl}ethyl)-2-fluorophenyl]-2-methylpropanenitrile]
IC50: 5 nM

CC(C)(C#N)c1ccc(CCC2(C3CCCC3)CC(O)=C(Cc3cn4ccccc4n3)C(=O)O2)cc1F (stereo not shown) [A(103), 2-(4-{2-[2-cyclopentyl-4-hydroxy-5-(imidazo[1,2-a]pyridin-2-ylmethyl)-6-oxo-3,6-dihydro-2H-pyran-2-yl]ethyl}-2-fluorophenyl)-2-methylpropanenitrile]
IC50: 180 nM

Cc1nc[nH]c1CC1C(=O)CC(CCc2ccc(C(C)(C)C#N)c(F)c2)(C2CCCC2)OC1=O (stereo not shown) [A(107), 2-(4-{2-[2-Cyclopentyl-5-(5-methyl-3H-imidazol-4-ylmethyl)-4,6-dioxo-tetrahydro-pyran-2-yl]-ethyl}-2-fluoro-phenyl)-2-methyl-propionitrile]
IC50: 360 nM

CC(C)(C#N)c1ccc(CCC2(C3CCCC3)CC(=O)C(Cc3nc4ncc(Cl)cn4n3)C(=O)O2)cc1F (stereo not shown) [A(111), 2-(4-{2-[5-(6-Chloro-[1,2,4]triazolo[1,5-a]pyrimidin-2-ylmethyl)-2-cyclopentyl-4,6-dioxo-tetrahydro-pyran-2-yl]-ethyl}-2-fluoro-phenyl)-2-methyl-propionitrile]
IC50: 2 nM

CCC(C#N)(CC)c1ccc(CCC2(C3CCCC3)CC(=O)C(Cc3nc4nc(C)cc(C)n4n3)C(=O)O2)cc1F (stereo not shown) [A(112), 2-(4-{2-[2-Cyclopentyl-5-(5,7-dimethyl-[1,2,4]triazolo[1,5-a]pyrimidin-2-ylmethyl)-4,6-dioxo-tetrahydro-pyran-2-yl]-ethyl}-2-fluoro-phenyl)-2-ethyl-butyronitrile]
IC50: 6 nM

Cc1cnc2nc(CC3C(=O)CC(CCc4ccc(C5(C#N)CC5)c(F)c4)(C4CCCC4)OC3=O)nn2c1 (stereo not shown) [A(113), 1-(4-{2-[2-Cyclopentyl-5-(6-methyl-[1,2,4]triazolo[1,5-a]pyrimidin-2-ylmethyl)-4,6-dioxo-tetrahydro-pyran-2-yl]-ethyl}-2-fluoro-phenyl)-cyclopropanecarbonitrile]
IC50: 8 nM

N#CC1(c2ccc(CCC3(C4CCCC4)CC(=O)C(Cc4nc5ncccn5n4)C(=O)O3)cc2F)CC1 (stereo not shown) [A(114), 1-{4-[2-(2-Cyclopentyl-4,6-dioxo-5-[1,2,4]triazolo[1,5-a]pyrimidin-2-ylmethyl-tetrahydro-pyran-2-yl)-ethyl]-2-fluoro-phenyl}-cyclopropanecarbonitrile]
IC50: 10 nM

N#CC1(c2ccc(CCC3(C4CCCC4)CC(=O)C(Cc4nc5ncc(Cl)cn5n4)C(=O)O3)cc2F)CC1 (stereo not shown) [A(115), 1-(4-{2-[5-(6-Chloro-[1,2,4]triazolo[1,5-a]pyrimidin-2-ylmethyl)-2-cyclopentyl-4,6-dioxo-tetrahydro-pyran-2-yl]-ethyl}-2-fluoro-phenyl)-cyclopropanecarbonitrile]
IC50: 5 nM

Cc1cc(C)n2nc(CC3=C(O)CC(CCc4ccc(CCO)c(F)c4)(C4CCCC4)OC3=O)nc2n1 (stereo not shown) [A(119), 6-Cyclopentyl-3-(5,7-dimethyl-[1,2,4]triazolo[1,5-a]pyrimidin-2-ylmethyl)-6-{2-[3-fluoro-4-(2-hydroxy-ethyl)-phenyl]-ethyl}-4-hydroxy-5,6-dihydro-pyran-2-one]
IC50: 1200 nM

O=C1CC(=O)OC(CCc2ccc(CCO)c(F)c2)(C2CCCC2)C1 (stereo not shown) [A(120)]
IC50: 13000 nM

CC(C)(CO)c1ccc(CCC2(C3CCCC3)CC(=O)CC(=O)O2)cc1F (stereo not shown) [A(121), 6-Cyclopentyl-6-{2-[3-fluoro-4-(2-hydroxy-1,1-dimethyl-ethyl)-phenyl]-ethyl}-dihydro-pyran-2,4-dione]
IC50: 1300 nM

O=C1CC(=O)OC(CCc2cc(F)cc(F)c2)(C2CCCC2)C1 (stereo not shown) [A(122), 6-Cyclopentyl-6-[2-(3,5-difluoro-phenyl)-ethyl]-dihydro-pyran-2,4-dione]
IC50: 31000 nM

CCc1cc(CCC2(C3CCCC3)CC(O)=C(Cc3nc4nc(C)cc(C)n4n3)C(=O)O2)cc(F)c1O (stereo not shown) [A(123), 6-Cyclopentyl-3-(5,7-dimethyl-[1,2,4]triazolo[1,5-a]pyrimidin-2-ylmethyl)-6-[2-(3-ethyl-5-fluoro-4-hydroxy-phenyl)-ethyl]-4-hydroxy-5,6-dihydro-pyran-2-one]
IC50: 12 nM

CCc1cc(CCC2(C3CCCC3)CC(=O)CC(=O)O2)cc(F)c1O (stereo not shown) [A(124), 6-Cyclopentyl-6-[2-(3-ethyl-5-fluoro-4-hydroxy-phenyl)-ethyl]-dihydro-pyran-2,4-dione]
IC50: 350 nM

CCc1cc(CCC2(C3CCCC3)CC(O)=C(Cc3nc4ncc(C)cn4n3)C(=O)O2)cc(F)c1O (stereo not shown) [A(125), 6-Cyclopentyl-6-[2-(3-ethyl-5-fluoro-4-hydroxy-phenyl)-ethyl]-4-hydroxy-3-(6-methyl-[1,2,4]triazolo[1,5-a]pyrimidin-2-ylmethyl)-5,6-dihydro-pyran-2-one]
IC50: 11 nM

CCc1cc(CCC2(C3CCCC3)CC(O)=C(Cc3nc4ncc(C)cn4n3)C(=O)O2)ccc1O (stereo not shown) [A(126), 6-Cyclopentyl-6-[2-(3-ethyl-4-hydroxy-phenyl)-ethyl]-4-hydroxy-3-(6-methyl-[1,2,4]triazolo[1,5-a]pyrimidin-2-ylmethyl)-5,6-dihydro-pyran-2-one]
IC50: 9 nM

CCc1cc(CCC2(C3CCCC3)CC(O)=C(Cc3nc4ncc(Cl)cn4n3)C(=O)O2)ccc1O (stereo not shown) [A(127), 3-(6-Chloro-[1,2,4]triazolo[1,5-a]pyrimidin-2-ylmethyl)-6-cyclopentyl-6-[2-(3-ethyl-4-hydroxy-phenyl)-ethyl]-4-hydroxy-5,6-dihydro-pyran-2-one]
IC50: 5 nM

CCc1cc(CCC2(C3CCCC3)CC(=O)CC(=O)O2)ccc1OCCO (stereo not shown) [A(128), 6-Cyclopentyl-6-{2-[3-ethyl-4-(2-hydroxy-ethoxy)-phenyl]-ethyl}-dihydro-pyran-2,4-dione]
IC50: 490 nM

From patent US7473790B2 (Pfizer Inc., priority 2003, dated 2009)
